Results taken from PubChem BioAssay AID2060328 (Molecular Pharmacology Branch, DTP, NCI, 2025).
“And” between values parts separate entries of the source, which are not always exact repeats. Equal values may be shown once. Blank lines part the entries; values can stand above or below the molecule they belong to.

Tested on: MDA-MB-231 multicell spheroids, viability (%T/C)
Experiment: Anticancer human tumor MDA-MB-231 cell line growth inhibition [IpAb];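 further: viability read after seven days of drug exposure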;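 on viability, T/C: 100% = DMSO vehicle control viability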
Conditions: for viability, T/C: stronger effect = lower value
Text: Combinatorial screen of targeted agents with ipatasertib and abemaciclib in multi-cell type tumor spheroids
A high-throughput screen of multi-cell type tumor spheroids was designed to identify active combinations of targeted small molecules and ipatasertib or abemaciclib. Complex spheroids include a stromal component modeled by human endothelial cells (HUVEC) and fibroblasts modeled by human mesenchymal stem cells (MSCs). The concentration ranges selected for each drug and investigational agent were based upon clinically achievable concentrations if the clinical Cmax of the agent was known.
Compounds. The drugs and investigational agents: ipatasertib (NSC767898), abemaciclib(NSC768073), selumetinib (NSC741078), trametinib (758246), adavosertib (NSC754352), everolimus (NSC733504), sapanisertib (NSC764658), vemurafenib (NSC761431), venetoclax (NSC766270), copanlisib (NSC809693), apelisib (NSC765974), palbociblib (NSC758247), vemurafenib (NSC761431), dabrafenib (NSC764134), ravoxertinib (NSC781343), BMS-387032 (NSC767048), sotorasib (NSC818433), talazoparib (NSC767125) and afursertib (NSC778305), were obtained from the National Cancer Institute (NCI) Developmental Therapeutics Program Chemical Repository. The FDA-approved anticancer drug set is available from the NCI Developmental Therapeutics Program. […] The stock solutions were prepared in dimethyl sulfoxide (DMSO, Sigma-Aldrich, St. Louis, MO, cat. D2650) at 800-fold the tested concentration and stored at -70 degrees C prior to their use. All drugs and investigational agents were tested over a range starting from a high concentration at or near the clinical Cmax and decreasing in half-log increments. If the clinical Cmax for an agent had not been determined, the highest concentration tested was 10 microM.
NCI60 Cell Culture. NCI60 cell lines were obtained from the NCI Developmental Therapeutics Program Tumor Repository. For each lot of cells, the Repository performed Applied Biosystems AmpFLSTR Identifiler testing with PCR amplification to confirm consistency with the published Identifier STR profile for each cell line. Cells were kept in continuous culture for no more than 20 passages. The optimal seeding densities for each of the cell lines at each time point assessed were determined prior to performing the concentration response studies. Briefly, the NCI60 human tumor lines were grown as monolayers in RPMI 1640 medium supplemented with 10% FBS and 2 mmol/L L-glutamine.
An additional 9 lines were from the NCI60 cell line panel including MDA-MB-231 breast carcinoma, MDA-MB-468 breast carcinoma, MCF7 breast carcinoma, Hs578T breast carcinoma, MALME-3M melanoma, SK-MEL-2 melanoma, SK-OV-3 ovarian carcinoma, DU-145 prostate carcinoma, PC-3 prostate carcinoma, all cell lines along with major genetic alterations are listed on Table 2. Pooled donor human umbilical vein endothelial cells (HUVEC, Lonza, cat. CC-2519) and human mesenchymal stem cells (hMSC, Lonza, cat. PT-2501) were purchased from Lonza (Walkersville, MD).
PDMR cell lines were grown in complete medium (DC medium): Dulbecco's modified Eagle's medium (DMEM)/F12 supplemented with 5% fetal bovine serum (FBS), 2 mM L-glutamine, 100 U/mL penicillin and 100 µg/ml streptomycin, 0.4 µg/ml hydrocortisone, 10 ng/ml epidermal growth factor (EGF) recombinant human protein, 24 µg/mL adenine, and 0.1 mg/mL primocin. During culture from frozen stock vials, PDMR cells were cultured in the same medium containing 10 µM Y-27632 (see Table 3). The PDCs were cultured in complete DMEM/F12 media without 10 microM Y-27632 dihydrochloride for at least two passages prior to the screen. The pooled donor HUVEC and hMSC were cultured in endothelial cell growth medium 2 (PromoCell, Heidelberg, Germany, cat. C-22011) and mesenchymal stem cell growth medium 2 (PromoCell, cat. C-28009), respectively. For all experiments, HUVEC and hMSC were used at passages </=5.
[…]

[1] = curve of first compound, second compound 0.1 µM
[2] = curve of first compound, second compound 0.316 µM
[3] = curve of first compound, second compound 1 µM
[4] = curve of first compound, second compound 3.16 µM
[5] = curve of first compound, second compound 10 µM
[6] = second compound 0.1 µM, first compound 0.00316 µM
[7] = second compound 0.1 µM, first compound 0.01 µM
[8] = second compound 0.1 µM, first compound 0.0316 µM
[9] = second compound 0.1 µM, first compound 0.1 µM
[10] = second compound 0.1 µM, first compound 0.316 µM
[11] = second compound 0.1 µM, first compound 1 µM
[12] = second compound 0.316 µM, first compound 0.00316 µM
[13] = second compound 0.316 µM, first compound 0.01 µM
[14] = second compound 0.316 µM, first compound 0.0316 µM
[15] = second compound 0.316 µM, first compound 0.1 µM
[16] = second compound 0.316 µM, first compound 0.316 µM
[17] = second compound 0.316 µM, first compound 1 µM
[18] = second compound 1 µM, first compound 0.00316 µM
[19] = second compound 1 µM, first compound 0.01 µM
[20] = second compound 1 µM, first compound 0.0316 µM
[21] = second compound 1 µM, first compound 0.1 µM
[22] = second compound 1 µM, first compound 0.316 µM
[23] = second compound 1 µM, first compound 1 µM
[24] = second compound 3.16 µM, first compound 0.00316 µM
[25] = second compound 3.16 µM, first compound 0.01 µM
[26] = second compound 3.16 µM, first compound 0.0316 µM
[27] = second compound 3.16 µM, first compound 0.1 µM
[28] = second compound 10 µM, first compound 0.00316 µM
[29] = second compound 10 µM, first compound 0.01 µM
[30] = second compound 10 µM, first compound 0.0316 µM
[31] = second compound 10 µM, first compound 0.1 µM

SMILES: COc1c(OCCCN2CCOCC2)ccc2c3n(c(=NC(=O)c4cnc(N)nc4)nc12)CCN3 + CC(C)NCC(C(=O)N1CCN(c2ncnc3c2C(C)CC3O)CC1)c1ccc(Cl)cc1
IC50 [1]: 0.0509 µM
IC50 [2]: 0.0277 µM
IC50 [3]: 0.0161 µM
IC50 [4]: 0.0047 µM
IC50 [5]: < 0.00316 µM
viability, T/C [6]: 85.3%
viability, T/C [7]: 70.1%
viability, T/C [8]: 57.4%
viability, T/C [9]: 42.3%
viability, T/C [10]: 34.1%
viability, T/C [11]: 40.3%
viability, T/C [12]: 71%
viability, T/C [13]: 59.4%
viability, T/C [14]: 51.7%
viability, T/C [15]: 37.5%
viability, T/C [16]: 31.7%
viability, T/C [17]: 41%
viability, T/C [18]: 62.6%
viability, T/C [19]: 54.4%
viability, T/C [20]: 43.9%
viability, T/C [21]: 36.3%
viability, T/C [22]: 28.2%
viability, T/C [23]: 41.9%
viability, T/C [24]: 52.1%
viability, T/C [25]: 47%
viability, T/C [26]: 37.1%
viability, T/C [27]: 30.4%
viability, T/C (second compound 3.16 µM, first compound 0.316 µM): 25.2%
viability, T/C (second compound 3.16 µM, first compound 1 µM): 32.5%
viability, T/C [28]: 33.6%
viability, T/C [29]: 31.9%
viability, T/C [30]: 28.2%
viability, T/C [31]: 22.6%
viability, T/C (second compound 10 µM, first compound 0.316 µM): 20%
viability, T/C (second compound 10 µM, first compound 1 µM): 31.1%

IC50 (curve of compound): 5.57 µM and 5.91 µM
SMILES: CC1(C)CCC(CN2CCN(c3ccc(C(=O)NS(=O)(=O)c4ccc(NCC5CCOCC5)c([N+](=O)[O-])c4)c(Oc4cnc5[nH]ccc5c4)c3)CC2)=C(c2ccc(Cl)cc2)C1
viability, T/C (compound 0.0316 µM): 104% and 106%
viability, T/C (compound 0.1 µM): 105% and 104%
viability, T/C (compound 0.316 µM): 103% and 105%
viability, T/C (compound 1 µM): 98.5% and 103%
viability, T/C (compound 3.16 µM): 88.7% and 99.5%
viability, T/C (compound 10 µM): 10.3% and 8.49%

SMILES: Cc1nc(NC(=O)N2CCCC2C(N)=O)sc1-c1ccnc(C(C)(C)C(F)(F)F)c1 (configuration not stated) + CCN1CCN(Cc2ccc(Nc3ncc(F)c(-c4cc(F)c5nc(C)n(C(C)C)c5c4)n3)nc2)CC1
IC50 (curve of first compound, second compound 0.01 µM): > 10 µM
IC50 (curve of first compound, second compound 0.0316 µM): 0.159 µM
IC50 [1]: < 0.0316 µM
IC50 [2]: < 0.0316 µM
IC50 [3]: < 0.0316 µM
viability, T/C (second compound 0.01 µM, first compound 0.0316 µM): 79.3%
viability, T/C (second compound 0.01 µM, first compound 0.1 µM): 61.5%
viability, T/C (second compound 0.01 µM, first compound 0.316 µM): 56%
viability, T/C (second compound 0.01 µM, first compound 1 µM): 55.2%
viability, T/C (second compound 0.01 µM, first compound 3.16 µM): 59.1%
viability, T/C (second compound 0.01 µM, first compound 10 µM): 55.4%
viability, T/C (second compound 0.0316 µM, first compound 0.0316 µM): 64%
viability, T/C (second compound 0.0316 µM, first compound 0.1 µM): 52.2%
viability, T/C (second compound 0.0316 µM, first compound 0.316 µM): 46.6%
viability, T/C (second compound 0.0316 µM, first compound 1 µM): 45.9%
viability, T/C (second compound 0.0316 µM, first compound 3.16 µM): 47.3%
viability, T/C (second compound 0.0316 µM, first compound 10 µM): 45.4%
viability, T/C [8]: 46.1%
viability, T/C [9]: 41.8%
viability, T/C [10]: 35.8%
viability, T/C [11]: 38.4%
viability, T/C (second compound 0.1 µM, first compound 3.16 µM): 41.5%
viability, T/C (second compound 0.1 µM, first compound 10 µM): 41.8%
viability, T/C [14]: 43.7%
viability, T/C [15]: 39.3%
viability, T/C [16]: 37.3%
viability, T/C [17]: 37.7%
viability, T/C (second compound 0.316 µM, first compound 3.16 µM): 39.4%
viability, T/C (second compound 0.316 µM, first compound 10 µM): 45.3%
viability, T/C [20]: 50.8%
viability, T/C [21]: 48.2%
viability, T/C [22]: 44.6%
viability, T/C [23]: 45.9%
viability, T/C (second compound 1 µM, first compound 3.16 µM): 53.9%
viability, T/C (second compound 1 µM, first compound 10 µM): 61%

SMILES: Cn1ncnc1[C@H]1c2n[nH]c(=O)c3cc(F)cc(c23)N[C@@H]1c1ccc(F)cc1 + CC(C)NCC(C(=O)N1CCN(c2ncnc3c2C(C)CC3O)CC1)c1ccc(Cl)cc1
IC50 [1]: > 0.1 µM
IC50 [2]: > 0.1 µM
IC50 [3]: > 0.1 µM
IC50 [4]: 0.00235 µM
IC50 [5]: < 0.000316 µM
viability, T/C (second compound 0.1 µM, first compound 0.000316 µM): 96.6%
viability, T/C (second compound 0.1 µM, first compound 0.001 µM): 89.4%
viability, T/C [6]: 81.9%
viability, T/C [7]: 78.9%
viability, T/C [8]: 76.6%
viability, T/C [9]: 73.1%
viability, T/C (second compound 0.316 µM, first compound 0.000316 µM): 83.9%
viability, T/C (second compound 0.316 µM, first compound 0.001 µM): 77%
viability, T/C [12]: 71.8%
viability, T/C [13]: 70.1%
viability, T/C [14]: 69.1%
viability, T/C [15]: 62.1%
viability, T/C (second compound 1 µM, first compound 0.000316 µM): 70.4%
viability, T/C (second compound 1 µM, first compound 0.001 µM): 68.9%
viability, T/C [18]: 59.2%
viability, T/C [19]: 58%
viability, T/C [20]: 56.8%
viability, T/C [21]: 56.5%
viability, T/C (second compound 3.16 µM, first compound 0.000316 µM): 54.6%
viability, T/C (second compound 3.16 µM, first compound 0.001 µM): 54.3%
viability, T/C [24]: 49.6%
viability, T/C [25]: 44.9%
viability, T/C [26]: 45.7%
viability, T/C [27]: 47%
viability, T/C (second compound 10 µM, first compound 0.000316 µM): 42.3%
viability, T/C (second compound 10 µM, first compound 0.001 µM): 41%
viability, T/C [28]: 38.5%
viability, T/C [29]: 33.8%
viability, T/C [30]: 34.9%
viability, T/C [31]: 34.1%
